Results reported in article PMC5011342, “A high throughput drug screening assay to identify compounds that promote oligodendrocyte differentiation using acutely dissociated and purified oligodendrocyte precursor cells” (BMC Research Notes, 2016).
Like-named read-outs stand apart in the source and are kept apart here.

What was measured:
[1] = test system: acutely dissociated and purified rat OPCs; assay: Acute OL differentiation assay (MBP expression/cell, immunofluorescent image quantification); type: cell-based; details: Rattus norvegicus, sheet "All OLga data"; for activation at 0.08 µM: test compound at 0.08 uM, read-out: 0.08 uM (% Quet)
How it was run: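 Oligodendrocyte precursor cells were enriched from P6-P7 Sprague–Dawley rat brains by immunopanning (RAN-2 and GalC depletion, O4 selection), plated at 5000 cells/well in serum-free, mitogen-free differentiation media on PDL/laminin 96-well view plates, centrifuged at 200×g, and pre-incubated 1–2 h before test compounds were added in quadruplicate. On DIV4, cells were fixed, stained for MBP and DAPI, imaged automatically, and MBP expression per cell was quantified.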

expanded OPCs = assay: cells; details: for viability at 0.1 µM / viability at 1 µM / viability at 10 µM: Rattus norvegicus, 72 h; for 0.1 µM (% DMSO) / 1 µM (% DMSO) / 10 µM (% DMSO): alamarBlue viability of expanded OPCs, relative to DMSO control; for 0.1 µM (% DMSO): compound at 0.1 µM; for 1 µM (% DMSO): compound at 1 µM; for 10 µM (% DMSO): compound at 10 µM
How it was run: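 Expanded OPCs seeded at 10,000 cells/well in differentiation media, then exposed to NCC library compounds at 10, 1 and 0.1 µM (quadruplicate, 0.1% DMSO) for three days. Viability read as alamarBlue fluorescence (560/590 nm) after 4 h at 37 °C; tunicamycin 5 ng/ml served as toxicity control.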

[2] = 0.4 uM test compound, relative to quetiapine, read-out: OL differentiation, 0.4 uM (% Quet)
[3] = 2 uM test compound, relative to quetiapine, read-out: OL differentiation, 2 uM (% Quet)
[4] = read-out: 0.1 µM (% DMSO), alamarBlue viability of expanded OPCs, compound at 0.1 µM, sheet All Tox data
[5] = read-out: 1 µM (% DMSO), alamarBlue viability of expanded OPCs, compound at 1 µM, sheet All Tox data
[6] = read-out: 10 µM (% DMSO), alamarBlue viability of expanded OPCs, compound at 10 µM, sheet All Tox data
[7] = test compound at 2 uM, NCC library screen, relative to quetiapine, read-out: 2 uM (% Quet)
[8] = test compound at 10 uM, NCC library screen, relative to quetiapine, read-out: 10 uM (% Quet)
[9] = 10 uM test compound, relative to quetiapine, read-out: OL differentiation, 10 uM (% Quet)
[10] = NCC library screen, relative to quetiapine
[11] = test compound at 0.4 uM, NCC library screen, relative to quetiapine, read-out: 0.4 uM (% Quet)
[12] = read-out: 0.1 µM (% DMSO), alamarBlue viability, NCC library compound at 0.1 µM, sheet "All Tox data"
[13] = read-out: 1 µM (% DMSO), alamarBlue viability, NCC library compound at 1 µM, sheet "All Tox data"
[14] = read-out: 10 µM (% DMSO), alamarBlue viability, NCC library compound at 10 µM, sheet "All Tox data"
[15] = test compound at 2 uM, MBP expression relative to quetiapine, NCC library screen, read-out: 2 uM (% Quet)
[16] = test compound at 10 uM, MBP expression relative to quetiapine, NCC library screen, read-out: 10 uM (% Quet)
[17] = test compound at 0.4 uM, MBP expression relative to quetiapine, NCC library screen, read-out: 0.4 uM (% Quet)

| SMILES | activation at 2 µM [1, 3] | activation at 2 µM [1, 7] | activation at 10 µM [1, 8] | 0.1 µM (% DMSO) (expanded OPCs) | 1 µM (% DMSO) (expanded OPCs) | 10 µM (% DMSO) (expanded OPCs) | viability at 0.1 µM (expanded OPCs; [12]) | viability at 1 µM (expanded OPCs; [13]) | viability at 10 µM (expanded OPCs; [14]) | also measured |
| --- | --- | --- | --- | --- | --- | --- | --- | --- | --- | --- |
| COc1ccccc1N1CCN(CC(O)COc2cccc3ccccc23)CC1 (stereo not shown) [Naftopidil] | -49.3% | – | – | – | – | – | – | – | – | activation at 0.4 µM [1, 2]: -7.9%; viability at 0.1 µM (expanded OPCs; [4]): 96.2%; viability at 1 µM (expanded OPCs; [5]): 87.5%; viability at 10 µM (expanded OPCs; [6]): 26.4% |
| CO[C@@]1(NC(=O)Cc2cccs2)C(=O)N2C(C(=O)O)=C(COC(N)=O)CS[C@@H]21 [Cefoxitin] | – | 4.1% | 0.14% | 88.0 % DMSO | 88.0 % DMSO | 85.5 % DMSO | – | – | – | – |
| CNNCc1ccc(C(=O)NC(C)C)cc1 [Procarbazine] | 0.13% | – | – | – | – | – | – | – | – | activation at 10 µM [1, 9]: -31.6%; viability at 0.1 µM (expanded OPCs; [4]): 82.3%; viability at 1 µM (expanded OPCs; [5]): 87.2%; viability at 10 µM (expanded OPCs; [6]): 96.6% |
| CCN(CC)CCNC(=O)c1cc(Cl)c(N)cc1OC [Metoclopramide] | – | -21.4% | -26.2% | 108.4 % DMSO | 109.6 % DMSO | 116.8 % DMSO | – | – | – | – |
| CSc1ccc2c(c1)N(CCC1CCCCN1C)c1ccccc1S2 (stereo not shown) [Thioridazine] | – | – | – | – | – | – | 53.8% | 24.4% | 9.4% | activation at 0.08 µM [1, 10]: -4.7%; activation at 0.4 µM [1, 11]: -158% |
| COc1cc([C@@H]2c3cc4c(cc3[C@@H](O[C@@H]3O[C@@H]5CO[C@@H](C)O[C@H]5[C@H](O)[C@H]3O)[C@H]3COC(=O)[C@H]23)OCO4)cc(OC)c1O [Etoposide] | – | – | – | – | – | – | 40.9% | 14% | 8.9% | activation at 0.08 µM [1, 10]: -42.3% |
| N[C@@H]1CON=C1O [Cycloserine] | 4.1% | – | – | 89.7 % DMSO | 97.0 % DMSO | 89.5 % DMSO | – | – | – | activation at 10 µM [1, 9]: 13.9%; activation at 2 µM [1, 15]: -13.8%; activation at 10 µM [1, 16]: -23%; viability at 0.1 µM (expanded OPCs; [4]): 82.2%; viability at 1 µM (expanded OPCs; [5]): 87%; viability at 10 µM (expanded OPCs; [6]): 97.4% |
| C[C@](N)(Cc1ccc(O)c(O)c1)C(=O)O [Methyldopa] | – | -37.7% | -93.8% | 100.4 % DMSO | 86.9 % DMSO | 63.4 % DMSO | – | – | – | – |
| O=C(O)Cc1ccccc1Nc1c(Cl)cccc1Cl [Diclofenac] | 4.8% | – | – | – | – | – | – | – | – | activation at 10 µM [1, 9]: 3.4%; viability at 0.1 µM (expanded OPCs; [4]): 90.1%; viability at 1 µM (expanded OPCs; [5]): 95.5%; viability at 10 µM (expanded OPCs; [6]): 88.8% |
| CCn1cc(C(=O)O)c(=O)c2ccc(C)nc21 [Nalidixic Acid] | – | – | – | 93.0 % DMSO | 93.1 % DMSO | 92.5 % DMSO | – | – | – | activation at 2 µM [1, 15]: -14.9%; activation at 10 µM [1, 16]: -17.1% |
| O=C(O)c1cc(-c2ccc(F)cc2F)ccc1O [Diflunisal] | – | 5.6% | – | 94.0 % DMSO | 92.0 % DMSO | 35.0 % DMSO | – | – | – | activation at 0.4 µM [1, 11]: 0.3% |
| CC[C@@H](CO)NCCN[C@@H](CC)CO [Ethambutol] | – | – | – | 106.3 % DMSO | 100.0 % DMSO | 85.9 % DMSO | – | – | – | activation at 2 µM [1, 15]: 2.2%; activation at 10 µM [1, 16]: -11.9% |
| CC(C)n1c(/C=C/C(O)CC(O)CC(=O)O)c(-c2ccc(F)cc2)c2ccccc21 (stereo not shown) [Fluvastatin] | – | – | – | 96.9 % DMSO | 53.3 % DMSO | 9.3 % DMSO | – | – | – | activation at 0.08 µM ([1]; MBP expression relative to quetiapine, NCC library screen): -66.1%; activation at 0.4 µM [1, 17]: -73.4% |
| Cc1cc2c(s1)Nc1ccccc1N=C2N1CCN(C)CC1 [Olanzapine] | -9.8% | – | – | – | – | – | – | – | – | activation at 0.4 µM [1, 2]: -3%; viability at 0.1 µM (expanded OPCs; [4]): 90.8%; viability at 1 µM (expanded OPCs; [5]): 60.6%; viability at 10 µM (expanded OPCs; [6]): 30.2% |
| C=CC1=C(C(=O)O)N2C(=O)[C@@H](NC(=O)/C(=N\OCC(=O)O)c3csc(N)n3)[C@H]2SC1 [Cefixime] | – | 6.6% | 63.5% | – | – | – | 82.1% | 68.5% | 67.3% | – |
| COC(=O)C1=C(C)NC(C)=C(C(=O)OCCN(C)Cc2ccccc2)C1c1cccc([N+](=O)[O-])c1 (stereo not shown) [Nicardipine] | – | – | – | – | – | – | 85.3% | 51.8% | 14.3% | activation at 0.08 µM [1, 10]: 8.8%; activation at 0.4 µM [1, 11]: -29% |
| COCCCOc1ccnc(C[S+]([O-])c2nc3ccccc3[nH]2)c1C (stereo not shown) [Rabeprazole] | – | -8.5% | -69.9% | – | – | – | 101% | 85.1% | 76.7% | – |
| CC(C)(C)NC(=O)[C@@H]1CN(Cc2cccnc2)CCN1C[C@@H](O)C[C@@H](Cc1ccccc1)C(=O)N[C@H]1c2ccccc2C[C@H]1O [Indinavir] | 13.4% | – | – | – | – | – | – | – | – | activation at 10 µM [1, 9]: -44.2%; viability at 0.1 µM (expanded OPCs; [4]): 105%; viability at 1 µM (expanded OPCs; [5]): 91.7%; viability at 10 µM (expanded OPCs; [6]): 92.2% |
| CC(C)OC(=O)C(C)(C)Oc1ccc(C(=O)c2ccc(Cl)cc2)cc1 [Fenofibrate] | – | 31.5% | -62.3% | 85.2 % DMSO | 87.6 % DMSO | 103.9 % DMSO | – | – | – | – |
| NC[C@H](O)c1ccc(O)c(O)c1 [Norepinephrine] | – | – | – | 99.4 % DMSO | 99.0 % DMSO | 68.5 % DMSO | – | – | – | activation at 2 µM [1, 15]: -1.9%; activation at 10 µM [1, 16]: -78% |
| CCN(CC)CCNC(=O)c1ccc(N)cc1 [Procainamide] | – | 0.4% | 19.7% | – | – | – | 106% | 111% | 120% | – |
| NC(=NCc1ccc(Cl)cc1)SCCCc1cnc[nH]1 [Clobenpropit] | – | -2.7% | – | – | – | – | 120% | 107% | 39.3% | activation at 0.4 µM [1, 11]: 7.2% |
| C#C[C@]1(O)CC[C@H]2[C@@H]3CCc4cc(OC)ccc4[C@H]3CC[C@@]21C [Mestranol] | 92.5% | – | – | – | – | – | 102% | 103% | 114% | activation at 10 µM [1, 9]: -6.7% |
| CCN1CCCC1CNC(=O)c1cc(S(=O)(=O)CC)ccc1OC (stereo not shown) [Sultopride] | 7.7% | – | – | – | – | – | – | – | – | activation at 10 µM [1, 9]: 0%; viability at 0.1 µM (expanded OPCs; [4]): 93.7%; viability at 1 µM (expanded OPCs; [5]): 89.8%; viability at 10 µM (expanded OPCs; [6]): 96.2% |
| C#C[C@]1(O)CC[C@H]2[C@@H]3CCc4cc(O)ccc4[C@H]3CC[C@@]21C [Ethinyl Estradiol] | -2.6% | – | – | – | – | – | – | – | – | activation at 0.4 µM [1, 2]: 7.3%; viability at 0.1 µM (expanded OPCs; [4]): 81%; viability at 1 µM (expanded OPCs; [5]): 88%; viability at 10 µM (expanded OPCs; [6]): 43.9% |
| CC(C)Cc1ccc(C(C)C(=O)O)cc1 (stereo not shown) [Ibuprofen] | – | 12% | -9.8% | 91.7 % DMSO | 90.2 % DMSO | 89.1 % DMSO | – | – | – | – |
| Cc1cnc(C(=O)NCCc2ccc(S(=O)(=O)NC(=O)NC3CCCCC3)cc2)cn1 [Glipizide] | – | 6.4% | 8.4% | 88.0 % DMSO | 86.3 % DMSO | 83.0 % DMSO | – | – | – | – |
| CC(C)N(CCC(C(N)=O)(c1ccccc1)c1ccccn1)C(C)C (stereo not shown) [Disopyramide] | – | – | – | 89.6 % DMSO | 92.1 % DMSO | 88.7 % DMSO | – | – | – | activation at 2 µM [1, 15]: -10.1%; activation at 10 µM [1, 16]: -11.2% |
| NC(=O)c1ncn([C@@H]2O[C@H](CO)[C@@H](O)[C@H]2O)n1 [Ribavirin] | – | – | – | 96.2 % DMSO | 92.8 % DMSO | 76.9 % DMSO | – | – | – | activation at 0.4 µM [1, 17]: 8.6%; activation at 2 µM [1, 15]: 6.7% |
| O=C(CCNNC(=O)c1ccncc1)NCc1ccccc1 [Nialamide] | – | 2.8% | 14.8% | – | – | – | 95% | 96.2% | 91.7% | – |
